The values below come from US20250026752A1, “POSITIVE ALLOSTERIC MODULATORS OF THE MUSCARINIC ACETYLCHOLINE RECEPTOR M4” (Vanderbilt University, priority 2021, published 2025).

For series [1] the following is noted: Alzheimer's disease patients; cited from earlier work.
For series [2] the following is noted: without causing catalepsy; cited from earlier work.
For series [3] the following is noted: hepatotoxicity of AChE inhibitors; cited from earlier work.
The target in the next series is T1, human mAChR M4 (Homo sapiens, UniProt P08173).
T1 construct: expressed in transfected cells; host or cells: CHO-K1 (ATCC), stably expressing hM4 and Gqi5
T1 sequence (P08173 1-479): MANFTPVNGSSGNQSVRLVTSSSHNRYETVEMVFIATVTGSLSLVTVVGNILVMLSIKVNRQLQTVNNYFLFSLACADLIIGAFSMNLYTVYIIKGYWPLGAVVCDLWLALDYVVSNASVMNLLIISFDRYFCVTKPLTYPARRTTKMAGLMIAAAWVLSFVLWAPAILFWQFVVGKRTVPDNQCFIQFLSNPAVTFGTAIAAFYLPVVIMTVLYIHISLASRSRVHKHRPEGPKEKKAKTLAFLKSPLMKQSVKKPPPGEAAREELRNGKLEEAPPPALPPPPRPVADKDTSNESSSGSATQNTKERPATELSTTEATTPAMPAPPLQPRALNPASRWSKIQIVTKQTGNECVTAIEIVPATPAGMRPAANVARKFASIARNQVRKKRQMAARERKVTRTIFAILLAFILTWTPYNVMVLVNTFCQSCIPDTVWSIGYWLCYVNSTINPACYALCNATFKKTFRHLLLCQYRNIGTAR
Nature of the series: mAChR M4 cell-based functional assay: calcium flux (Fluo-4, FDSS), positive allosteric modulator activity on the EC20 acetylcholine response, hM4-Gqi5 CHO-K1 cells. The note with it: for Emax at 30 µM: CHO-K1, human M4, % ACh maximum at 30 μM; for EC50: human M4, PAM activity on EC20 acetylcholine response, calcium flux, read-out: Human M4 EC50. A digest of the protocol: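 Potentiation was taken as the concentration-dependent rise in the EC20 acetylcholine calcium response, fitted by a four-parameter logistic with EC20 as baseline. Fluo-4-loaded hM4-Gqi5 CHO-K1 cells received 11-point, threefold-diluted compound before acetylcholine at 144 s; FDSS read at 1 Hz.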
A general note: Calcium assays in cells follow changes in intracellular calcium, usually with a dye or a luminescent sensor.

Structures are written as SMILES.

For `CCCCCCOc1nsnc1C1=CCCN(C)C1` [xanomeline], the “effect on psychotic behavioral symptoms (delusions, suspiciousness, vocal outbursts, hallucinations)” value in series [1] is on record as “reduce psychotic behavioral symptoms”. The “activity in animal models with profiles similar to known antipsychotic drugs” value in series [2] was “active in animal models”.

As to `Nc1c2c(nc3ccccc13)CCCC2` [tacrine], the “elevated liver transaminases observed in patients” value in series [3] was “about 30 % of patients”.

By Emax is commonly meant the greatest response seen or fitted, relative to the assay's reference. By EC50 is commonly meant the concentration needed to bring the measured effect to its halfway point. For the molecule `Cc1ccccc1-c1cnc2c(c1)CN(c1ncnc3ccc(Cl)cc13)CC2` [Compound 300, 6-chloro-4-(3-(o-tolyl)-7,8-dihydro-1,6-naphthyridin-6(5H)-yl)quinazoline], at human mAChR M4, the Emax at 30 µM was 96% and the EC50 is 3600 nM.

As for `[2H]C1([2H])N(c2cnc3c(c2)CN(c2ncnc4cc(F)c(F)cc24)CC3)c2ccnn2C([2H])([2H])C1([2H])[2H]` [Compound 282, 4-(3-(6,7-dihydropyrazolo[1,5-a]pyrimidin-4(5H)-yl-5,5,6,6,7,7-d6)-7,8-dihydro-1,6-naphthyridin-6(5H)-yl)-6,7-difluoroquinazoline], on human mAChR M4, the Emax at 30 µM worked out at 111% and the EC50 was 30 nM.

`Clc1ccc2ncnc(N3CCc4ncc(-c5cnn(C6CC6)c5)cc4C3)c2c1` [Compound 17, 6-chloro-4-[3-(1-cyclopropylpyrazol-4-yl)-7,8-dihydro-5H-1,6-naphthyridin-6-yl]quinazoline]: at human mAChR M4, the Emax at 30 µM amounted to 78% and the EC50 was found to be 120 nM.

`COc1ccc2ncnc(N3CCc4ncc(C5CC5)cc4C3)c2c1` [Compound 161, 4-(3-cyclopropyl-7,8-dihydro-5H-1,6-naphthyridin-6-yl)-6-methoxy-quinazoline]: on human mAChR M4, the Emax at 30 µM amounted to 83% and the EC50 is 110 nM.

Consider `Cc1noc(C)c1-c1cnc2c(c1)CN(c1nc(-c3c(C)noc3C)nc3ccc(Cl)cc13)CC2` [Compound 187, 4-[6-chloro-4-[3-(3,5-dimethylisoxazol-4-yl)-7,8-dihydro-5H-1,6-naphthyridin-6-yl]quinazolin-2-yl]-3,5-dimethyl-isoxazole], for which, on human mAChR M4, the Emax at 30 µM was 79% and the EC50 was determined as 4150 nM.

Regarding `Cc1nc(N2CCc3ncc(-c4cnc(C)s4)cc3C2)c2cc(C(F)(F)F)ccc2n1` [Compound 56, 2-methyl-5-[6-[2-methyl-6-(trifluoromethyl)quinazolin-4-yl]-7,8-dihydro-5H-1,6-naphthyridin-3-yl]thiazole], at human mAChR M4, the Emax at 30 µM was 45% and the EC50 came out at 1930 nM.

For the molecule `Cc1nn(C)cc1-c1cnc2c(c1)CN(c1ncnc3cc(F)c(F)cc13)CC2` [Compound 8, 4-[3-(1,3-dimethylpyrazol-4-yl)-7,8-dihydro-5H-1,6-naphthyridin-6-yl]-6,7-difluoro-quinazoline], at human mAChR M4, the Emax at 30 µM came out at 87% and the EC50 is 60 nM.

On to `Cc1ccc(-c2cnc3c(c2)CN(c2nc(C)nc4ccc(Cl)cc24)CC3)cn1` [Compound 51, 6-chloro-2-methyl-4-[3-(6-methyl-3-pyridyl)-7,8-dihydro-5H-1,6-naphthyridin-6-yl]quinazoline], for which, at human mAChR M4, the Emax at 30 µM came to 95% and the EC50 is 290 nM.

On to `Cc1nc(N2CCc3ncc(N4CCCn5nccc54)cc3C2)c2cc(C(F)(F)F)ccc2n1` [Compound 101, 4-[3-(6,7-dihydro-5H-pyrazolo[1,5-a]pyrimidin-4-yl)-7,8-dihydro-5H-1,6-naphthyridin-6-yl]-2-methyl-6-(trifluoromethyl)quinazoline], for which, at human mAChR M4, the Emax at 30 µM is 92% and the EC50 was 480 nM.

As for `COc1ccc2ncnc(N3CCc4ncc(-c5cc(F)ccc5C)cc4C3)c2c1` [Compound 297, 4-(3-(5-fluoro-2-methylphenyl)-7,8-dihydro-1,6-naphthyridin-6(5H)-yl)-6-methoxyquinazoline], on human mAChR M4, the Emax at 30 µM is 101% and the EC50 was 1550 nM.
